Source: patent publication US20090082332A1, “PURINE DERIVATIVES FOR THE TREATMENT OF VIRAL OR ALLERGIC DISEASES AND CANCERS” (priority 2005, published 2009)

target: T1, Recombinant human TLR7 (Homo sapiens, UniProt Q9NYK1); test: Human TLR7 assay (SEAP reporter in HEK293 cells); type: cell-based; conditions: HEK293 cells expressing human TLR7 and pNiFty2-SEAP reporter; overnight incubation at 37° C., 0.1% (v/v) DMSO
T1 construct: expressed in transfected cells; host or cells: HEK293 cell line stably expressing the pNiFty2-SEAP reporter plasmid; TLR7 in pUNO vector, blasticidin selection
T1 sequence (Q9NYK1 27-1049): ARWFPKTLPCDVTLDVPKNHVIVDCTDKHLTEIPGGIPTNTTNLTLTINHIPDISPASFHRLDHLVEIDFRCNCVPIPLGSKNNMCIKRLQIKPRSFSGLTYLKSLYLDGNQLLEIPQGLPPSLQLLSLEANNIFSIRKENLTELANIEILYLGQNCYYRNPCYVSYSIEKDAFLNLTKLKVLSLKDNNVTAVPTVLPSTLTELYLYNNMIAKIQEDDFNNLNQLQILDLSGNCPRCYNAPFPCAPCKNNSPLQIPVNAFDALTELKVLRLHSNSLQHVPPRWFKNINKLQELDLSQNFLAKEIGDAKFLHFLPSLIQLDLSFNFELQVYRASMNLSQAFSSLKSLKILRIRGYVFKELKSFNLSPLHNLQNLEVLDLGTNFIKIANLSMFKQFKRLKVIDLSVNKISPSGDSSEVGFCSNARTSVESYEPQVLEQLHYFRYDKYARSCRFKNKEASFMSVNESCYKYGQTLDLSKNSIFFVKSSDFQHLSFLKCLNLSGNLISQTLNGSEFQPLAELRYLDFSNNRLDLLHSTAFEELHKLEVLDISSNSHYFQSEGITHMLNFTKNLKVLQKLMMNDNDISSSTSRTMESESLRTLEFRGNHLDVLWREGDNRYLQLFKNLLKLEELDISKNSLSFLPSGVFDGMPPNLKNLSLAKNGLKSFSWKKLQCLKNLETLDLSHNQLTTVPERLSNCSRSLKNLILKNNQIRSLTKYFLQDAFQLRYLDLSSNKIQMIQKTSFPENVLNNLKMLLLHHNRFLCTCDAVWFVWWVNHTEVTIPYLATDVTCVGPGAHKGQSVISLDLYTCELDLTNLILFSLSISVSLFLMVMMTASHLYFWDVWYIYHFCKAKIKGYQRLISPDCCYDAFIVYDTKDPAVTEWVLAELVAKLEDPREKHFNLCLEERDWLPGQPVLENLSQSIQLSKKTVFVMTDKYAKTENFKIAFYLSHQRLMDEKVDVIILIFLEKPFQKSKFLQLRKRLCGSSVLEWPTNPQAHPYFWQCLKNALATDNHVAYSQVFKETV
Description: Recombinant human TLR7 was stably expressed in a HEK293 cell line already stably expressing the pNiFty2-SEAP reporter plasmid; integration of the reporter gene was maintained by selection with the antibiotic zeocin. The most common variant sequence of human TLR7 (represented by the EMBL sequence AF240467) was cloned into the mammalian cell expression vector pUNO and transfected into this reporter cell-line. Transfectants with stable expression were selected using the antibiotic blasticidin. In this reporter cell-line, expression of secreted alkaline phosphatase (SEAP) is controlled by an NFkB/ELAM-1 composite promoter comprising five NFkB sites combined with the proximal ELAM-1 promoter. TLR signaling leads to the translocation of NFkB and activation of the promoter results in expression of the SEAP gene. TLR7-specific activation was assessed by determining the level of SEAP produced following overnight incubation of the cells at 37° C. with the standard compound in the presence of 0.1% (v/v) dimethylsulfoxide (DMSO). Concentration dependent induction of SEAP production by compounds was expressed as the log of the minimal effective concentration of compound to induce SEAP release (pMEC).

| Structure (SMILES) | pMEC (log of the minimal effective concentration of compound to induce SEAP release) |
| --- | --- |
| CCCCOc1nc(N)c2[nH]c(=O)n(CCCCN(Cc3cccc(CC(=O)OC)c3)C3CCN(C)CC3)c2n1 [Example 10, Methyl (3-{[[4-(6-amino-2-butoxy-8-oxo-7,8-dihydro-9H-purin-9-yl)butyl] (1-methylpiperidin-4-yl)amino]methyl}phenyl)acetate] | pMEC 8.4 |
| CCCCOc1nc(N)c2[nH]c(=O)n(CCCN(Cc3cccc(CC(=O)OC)c3)C3CCN(CCCC(=O)OC(C)(C)C)CC3)c2n1 [Example 17, tert-Butyl 4-(4-{[3-(6-amino-2-butoxy-8-oxo-7,8-dihydro-9H-purin-9-yl)propyl][3-(2-methoxy-2-oxoethyl)benzyl]amino}piperidin-1-yl)butanoate] | pMEC 9.1 |
| CCCCOc1nc(N)c2[nH]c(=O)n(CCCN(Cc3cccc(CC(=O)OC)c3)C3CCN(CC#N)CC3)c2n1 [Example 14, Methyl [3-({[3-(6-amino-2-butoxy-8-oxo-7,8-dihydro-9H-purin-9-yl)propyl][1-(cyanomethyl)piperidin-4-yl]amino}methyl)phenyl]acetate] | pMEC 7.7 |
